Tests used:
PGE2 production = assay: PGE2 levels in air pouch exudates (EIA) after P. gingivalis; format: in vivo, BALB/c mice
Protocol: (§1) Six to eight week old male BALB/c mice were obtained from Taconic Farms (Germantown, N.Y.). Air pouches were raised on the dorsum by s.c. injection of 3 ml of sterile air on day 0 and day 3, and all experiments were carried out on day 6 (Sin, Y. M., et al. (1986) Ann. Rheum. Dis. 45, 873). Individual air pouches (one per mouse) were injected with either vehicle alone (0.1% ethanol), with 10 μg 15-R/S-methyl-LXA4-me or with 10 μg 15-epi-16-phenoxy-LXA4-me, followed by 500 μl of sterile PBS or ˜10^5 cells of P. gingivalis strain A7436 (OD600 0.9-1.0) originally obtained from the CF of a patient diagnosed with periodontitis. Mice were sacrificed 4 hr post-injection and individual air pouches were lavaged three times with sterile PBS (3 ml for each lavage) (Sin, Y. M. et al. (1986) Ann. Rheum. Dis. 45, 873; Hachicha, M., et al. (1999) J. Exp. Med. 189, 1923). […] Air pouch exudates were assessed for PGE2 using an enzyme immunoassay (EIA) kit (Cayman Chemical Co., Ann Arbor, Mich. [cross-reactivities in the PGE2 EIA kit were <0.04% for 6-keto PGF1α and <0.01% for LTB4, thromboxane B2 and arachidonic acid]). […]
Since PGE2 is associated with loss of attachment and bone loss in periodontal disease (Offenbacher, S., et al. (1992) J. Periodontal Res. 27, 207), we determined PGE2 levels in the air pouch exudates. […] Also, the expression of COX-2 was evaluated in exudate leukocytes. […]

COX-2 mRNA = assay: COX-2 expression in air pouch exudate leukocytes (northern blot); format: in vivo, BALB/c mice; settings: within the air pouch, P. gingivalis-injected mice
Protocol: as §1
Since PGE2 is associated with loss of attachment and bone loss in periodontal disease (Offenbacher, S., et al. (1992) J. Periodontal Res. 27, 207), we determined PGE2 levels in the air pouch exudates. […]

## CCCCCC(C)(O)/C=C/C=C\C=C\C=C\[C@@H](O)[C@@H](O)CCCC(=O)O (stereo partly drawn) [15-R/S-methyl LXA4]
PGE2 production; 10 μg/pouch, P. gingivalis-injected murine air pouch, 4 hr
  decrease of PGE2 levels in the exudates: ≤ 75%
PGE2 production; murine air pouch exudates
  P. gingivalis-induced PGE2 production in murine air pouch (in words): inhibits
COX-2 mRNA
  overall expression of COX-2 in exudates: decreased

— US8604229B2, “Lipoxin analogs and methods for the treatment of periodontal disease” (University of Southern California, priority 2000, dated 2013)
